Data from patent US8552161B2, “Saponin compounds, methods of preparation thereof, use thereof and pharmaceutical compositions” (Uniwersytet W Bialymstoku, priority 2009, dated 2013).

Key:
[1] = system: lung carcinoma cell line A549; assay: Calcein AM cytotoxicity assay, A549; type: cell-based, human; settings: 72 h, means ± SD, three independent experiments in triplicate, read-out: IC50, A 549
Protocol: (§1) Stock solutions (10 mmol/l) of the tested compounds were prepared by dissolving relevant quantity of the substance in DMSO. […] Calcein AM was obtained from Molecular Probes (Invitrogen Corporation, CA, USA).
(§2) All cell lines were cultured in DMEM medium (Sigma, Mo., USA). Medium was supplemented with 10% heat-inactivated fetal bovine serum, 2 mmol/l L-glutamine and 1% penicillin-streptomycin. The cell lines were maintained under standard cell culture conditions at 37° C. and 5% CO2 in a humid environment. Cells were subcultured twice or three times a week using the standard trypsinization procedure.
(§3) All cell lines were cultured in DMEM medium (Sigma, Mo., USA) supplemented with 10% fetal calf serum, 2 mM glutamine, 100 U/ml penicillin and 100 μg/ml streptomycin, at 37° C. in a fully humidified atmosphere containing 5% CO2. Suspensions of these lines (ca. 1.0×10^5 cells/ml) were placed in 96-well microtitre plates and after 3 h of stabilization the tested compounds were added in serially diluted concentrations. Saponins were dissolved in dimethylsulfoxide (DMSO) before addition to cultures. Control cultures were treated with DMSO alone. The final concentration of DMSO in the reaction mixtures never exceeded 0.6%. Four-fold dilutions of the intended test concentration were added at time zero in 20 μl aliquots to the microtitre plate wells. Usually, each test compound was evaluated at six 4-fold dilutions and in routine testing; the highest well concentration was 50 μM, although this varied in a few cases, depending on the test compound. After 72 h of culture, the cells were incubated with Calcein AM solution (Molecular Probes) for 1 h. The fluorescence of viable cells was quantified using a Fluoroscan Ascent instrument (Microsystems).

[2] = system: T-lymphoblastic leukemia cell line CEM; assay: Calcein AM cytotoxicity assay, CEM; type: cell-based; settings: Calcein AM assay, 72 h; means ± SD, three independent experiments in triplicate
Protocol: as §1, §2, §3

[3] = system: breast carcinoma cell line MCF7; assay: Calcein AM cytotoxicity assay, MCF7; type: cell-based, human; settings: Calcein AM assay, 72 h; means ± SD, three independent experiments in triplicate
Protocol: as §1, §2, §3

leukemia cells (CEM) = assay: Western blot analysis of apoptosis related proteins; type: cell-based; settings: 24 h
Protocol: The cells were seeded in a density 2.2×10^4 cells/cm^2 using culture medium in 100-mm culture dishes. Immediately the cells were treated by novel saponins: 3 (1; 2.5; 5 μM), 6 (0.1; 0.25; 0.5 μM) and 7 (5; 7.5; 10 μM). DMSO was used as a vehicle for controls. After 24 h treatment, the cells were washed three times with cold PBS (10 mM, pH 7.4) and lysed in ice-cold protein extract RIPA buffer (20 mM Tris-HCl, pH 7.4, 5 mM EDTA, 2 mM EGTA, 100 mM NaCl, 2 mM NaF, 0.2% Nonidet P-40, 30 mM PMSF, 1 mM DTT, […] of aprotinin and leupeptin). The lysate was collected into microfuge tube and incubated on ice for 1 h. It was then cleared by centrifugation at 10,000×g for […] at 4° C., and supernatant was collected, aliquoted, and stored at −80° C. Proteins in lysates were quantified by the Bradford method and then diluted with Laemmli electrophoresis buffer. Proteins were then separated on 10% or 12% SDS-polyacrylamide gels, transferred onto nitrocellulose membranes (Bio-Rad Laboratories, CA, USA) and stained with Ponceau S to check equal protein loading. The membranes were blocked with 5% (w/v) non-fat dry milk and 0.1% Tween-20 in PBS for 2 h and probed with the specific primary antibodies overnight. After washing in PBS and PBS with 0.1% Tween-20, the membranes were probed with horseradish peroxidase-conjugated secondary antibodies and visualized with chemiluminescent detection reagent West Pico Supersignal (Thermo Fisher Scientific, Rockford, USA). To confirm equal protein loading, immunodetection was performed with the anti-α-tubulin monoclonal antibody. The experiments were repeated three times. The protein expressions in treated cells were compared to untreated controls.

[4] = system: cervical carcinoma cell line HeLa; assay: Calcein AM cytotoxicity assay, HeLa; type: cell-based; settings: 72 h, means ± SD, three independent experiments in triplicate
Protocol: as §1, §2, §3

[5] = system: malignant melanoma cell line G-361; assay: Calcein AM cytotoxicity assay, G-361; type: cell-based, human; settings: 72 h, means ± SD, three independent experiments in triplicate
Protocol: as §1, §2, §3

caspase-3/7 in CEM cells = assay: Activity of caspases-3/7 in treated CEM cells (Ac-DEVD-AMC substrate); type: cell-based; settings: 24 h, 7.5 μM and 10 μM (FIG. 4)
Protocol: The CEM cells treated with the novel compounds were harvested by centrifugations and homogenized in an extraction buffer (10 mM KCl, 5 mM HEPES, 1 mM EDTA, 1 mM EGTA, 0.2% CHAPS, inhibitors of proteases, pH 7.4) on ice for 20 min. The homogenates were clarified by centrifugation at 10,000 g for […] at 4° C., the proteins were quantified by the Bradford method and diluted to the same concentration. Lysates were then incubated for 1 h with […] Ac-DEVD-AMC as a substrate (Sigma-Aldrich) in an assay buffer (25 mM PIPES, 2 mM EGTA, 2 mM MgCl2, 5 mM DTT, pH 7.3). For negative controls, the lysates were supplemented with […] Ac-DEVD-CHO as a caspase-3/7 inhibitor (Sigma-Aldrich). The fluorescence of the product was measured using a Fluoroskan Ascent microplate reader (Labsystems) at 346/442 nm (ex/em). Here, we determined the activity of caspase-3/7 in CEM cells exposed to 3, 6 or 7 using a fluorogenic substrate Ac-DEVD-AMC and/or caspase 3/7 inhibitor […]. Cells were treated in a dose-dependent manner with compounds 3 (1; 2.5; 5 μM), 6 (0.1; 0.25; 0.5 μM) and 7 (5; 7.5; 10 μM).

[6] = system: normal human fibroblasts BJ; assay: Calcein AM cytotoxicity assay, normal fibroblasts BJ; type: cell-based; settings: 72 h, means ± SD, three independent experiments in triplicate
Protocol: as §1, §2, §3

CEM cells = assay: Flow cytometry cell cycle and apoptosis (subG1) analysis; type: cell-based
Protocol: The leukemia cancer CEM cells were trypsinized, seeded in 6 well plates, and immediately incubated with the respective compounds. […] Triton X-100, and 50 μg/ml propidium iodide in PBS. DNA content was assessed with a flow cytometer (Cell Lab Quanta SC—MPL, Beckman Coulter, Calif., USA). In a histogram analysis, distribution of cells into the subG1 (“apoptotic cells”), the G0/G1, S and the G2/M peak was quantified using software MultiCycle AV (Phoenix Flow Systems, CA, USA).

C/C=C/C(=O)OC[C@@H](C)[C@@]1(O)[C@@H](O[C@@H]2OC[C@H](O)[C@H](O[C@@H]3OC[C@@H](O)[C@H](O)[C@H]3OC(=O)c3ccc(OC)cc3)[C@H]2OC(C)=O)C[C@H]2[C@@H]3CC=C4C[C@@H](O)CC[C@]4(C)[C@H]3CC[C@@]21C [Compound 7, (20R)-21-O-[(E)-but-2-enoyl]-20-methylpregn-5-ene-3β,16β,17α,21-tetraol 16-O-{2-O-(4-methoxybenzoyl)-β-D-xylopyranosyl-(1→3)-2′-O-acetyl-α-L-arabinopyranoside}]
IC50 [1]: 550 ± 200 nM | IC50 [2]: 340 ± 40 nM | IC50 [3]: 840 ± 510 nM | PARP (Western blot) (leukemia cells (CEM); dose-dependent (FIG. 5)): cleavage of PARP | antiapoptotic Bcl-2 protein (leukemia cells (CEM); dose-dependent (FIG. 5)): increased | caspase-3 (Western blot) (leukemia cells (CEM); dose-dependent (FIG. 5)): accumulation of caspase-3 | expression of tumour suppressor protein p53 (leukemia cells (CEM); dose-dependent (FIG. 5)): enhanced expression | phosphorylation of pRb S780 (leukemia cells (CEM); same concentrations (FIG. 5)): increase of phosphorylation of pRb S780 | IC50 [4]: 1940 ± 50 nM | IC50 [5]: 890 ± 90 nM | activity of caspase-3/7 compared with the untreated control (caspase-3/7 in CEM cells): threefold increase | IC50 [6]: 230 ± 80 nM | subG1 phase of the cell cycle (apoptotic cells) (CEM cells; CEM cell line after treatment): increase in subG1 phase | amount of debris (subG1) compared with untreated controls (CEM cells; CEM cells, 24 h (FIG. 3)): 3 fold | distribution of CEM cells in cell cycle phases (FIG. 2) (CEM cells; CEM cells, increasing concentrations): increased the number of S-phase and G2/M cells with concomitant decrease of G0/G1 cells in dose-dependent manner | Apoptosis subG1 (CEM cells; CEM, 24 h, 3 μM): 15% | Cell cycle distribution G0/G1 (CEM cells; CEM, 24 h, 3 μM): 14% | Cell cycle distribution G2/M (CEM cells; CEM, 24 h, 3 μM): 30% | Cell cycle distribution S (CEM cells; CEM, 24 h, 3 μM): 41%
